Test results as given in ChEMBL document CHEMBL1122975, “Potential inhibitors of S-adenosylmethionine-dependent methyltransferases. 9. 2',3'-Dialdehyde derivatives of carbocyclic purine nucleosides as inhibitors of S-adenosylhomocysteine hydrolase” (J Med Chem, 1985).

Key:
[1] = tested on: L cells; test: Percentage control of incorporation of [3H]thymidine into DNA of uninfected L-cell cultures after 72 hr exposure; assay type: functional, Mus musculus, L929; design: concentration or dose not given beside the values
[2] = tested on: L929; test: Percentage inhibition of plaque formation, after 72 hr of incubation in virus plaque assay, prepared from monolayer cultures of mouse L 929 cells; assay type: functional; design: concentration or dose not given beside the values
[3] = tested on: L cells; test: Percentage control of incorporation of [3H]thymidine into DNA of uninfected L-cell cultures after 36h exposure; assay type: functional, Mus musculus, L929; design: concentration or dose not given beside the values
[4] = tested on: Adenosylhomocysteinase (Bos taurus); test: Compound is evaluated for the inhibition of bovine liver S-adenosyl-homocysteine hydrolase at a concentration of 2.0 mM

| SMILES | Control [1] [%] | Inhibition [2] [%] | Control [3] [%] | inhibition [4] [%] |
| --- | --- | --- | --- | --- |
| Nc1ncnc2c1nnn2C(C=O)CC(C=O)CO (configuration not stated) | 81 | 63 | 91 | – |
| CNc1ncnc2c1ncn2C1CC(CO)C(O)C1O (configuration not stated) | 137 | 19 | 95 | – |
| Nc1nccc2c1ncn2C(CO)CC(CO)CO (configuration not stated) | – | 9 | – | 94 |
| Nc1ncnc2c1nnn2C(CO)CC(CO)CO (configuration not stated) | – | 11 | – | 94 |
| Nc1ncnc2c1ncn2C(CO)CC(CO)CO (configuration not stated) | – | 13 | – | 98 |
| CNc1ncnc2c1ncn2C(CO)CC(CO)CO (configuration not stated) | – | 7 | – | 82 |
| Nc1nccc2c1ncn2[C@@H]1C[C@H](CO)[C@@H](O)[C@H]1O [3-DEAZAARISTEROMYCIN A] | 246 | 95 | 86 | – |
| Nc1ncnc2c1nnn2C1CC(CO)C(O)C1O (configuration not stated) | 146 | 7 | 89 | – |
| Nc1ncnc2c1ncn2C(C=O)CC(C=O)CO (configuration not stated) | 130 | 75 | 67 | – |
| CNc1ncnc2c1ncn2C(C=O)CC(C=O)CO (configuration not stated) | 106 | 60 | 63 | – |
| Nc1ncnc2c1ncn2[C@@H]1C[C@H](CO)[C@@H](O)[C@H]1O [ARISTEROMYCIN] | 134 | 65 | 81 | – |
| Nc1nccc2c1ncn2C(C=O)CC(C=O)CO (configuration not stated) | 133 | 91 | 107 | – |
